Measured values as given in patent US20230117034A1, “PYRAZOLOTRIAZINES” (Bayer Aktiengesellschaft, priority 2019, published 2023).
Like-named read-outs stand apart in the source and are kept apart here.

Assays:
[1] = tested on: CAL-120, human breast adenocarcinoma cells; assay: Proliferation assay CAL-120 (crystal violet, 4 days); assay type: cell-based; conditions: CAL-120 cells, median, read-out: Prolif-CAL-120, IC50-[mol/l] (median)
Outline: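 Crystal violet proliferation read-out after 4 days of compound exposure (0.01-10 µmol/L; solvent 0.1% DMSO). Extinction at 595 nm, set between zero-point (0%) and vehicle (100%), fitted with 4 parameters to give IC50.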

CDK9/CycT1 = molecular target: T1, CDK9/CycT1 (Homo sapiens, UniProt P50750); assay: CDK9/CycT1 high ATP kinase assay (TR-FRET, 2 mM ATP); assay type: biochemical; conditions: 2 mM ATP (high ATP); median; read-out: CDK9/CyclinT1, 2 mM ATP (high ATP), IC50 (median)
T1 construct: Recombinant full-length His-tagged human CDK9 and CycT1; purchased Life Technologies PV4131; host or cells: insect cells
Outline: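 Full-length His-tagged human CDK9/CycT1 (insect cell, ~0.5 μg/mL) preincubated 15 min at 22 °C with compound in Tris pH 8.0, MgCl2, DTT buffer before reaction with biotinylated peptide substrate at high ATP (2 mM).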

[2] = molecular target: T2, CDK12 (nuclear staining in CAL-120 cells) (Homo sapiens, UniProt Q9NYV4); assay: CDK12 nuclear protein level: immunofluorescence/high content analysis (CAL-120); assay type: cell-based; conditions: for DC50: CAL-120 cells, 24 h, immunofluorescence, 50% reduction of nuclear CDK12 staining intensity, median, read-out: CDK12 degradation IF, DC50- [mol/l] (median); for (IC50 CDK12 high ATP) to (Degradation DC50 CDK12) ratio: ratio of IC50 CDK12 high ATP kinase assay to DC50 CDK12 degradation (IF, CAL-120)
T2 construct: endogenous in cells; host or cells: CAL-120 human breast cancer cells (DSMZ ACC 459)
Outline: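 DC50 is the degrader concentration that halves nuclear CDK12 immunofluorescence relative to controls, measured by high-content imaging. CAL-120 cells were exposed to compound for 24 h at 37 °C before PFA fixation, and signal was normalized to DMSO and control wells.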

T1 sequence (P50750 whole entry): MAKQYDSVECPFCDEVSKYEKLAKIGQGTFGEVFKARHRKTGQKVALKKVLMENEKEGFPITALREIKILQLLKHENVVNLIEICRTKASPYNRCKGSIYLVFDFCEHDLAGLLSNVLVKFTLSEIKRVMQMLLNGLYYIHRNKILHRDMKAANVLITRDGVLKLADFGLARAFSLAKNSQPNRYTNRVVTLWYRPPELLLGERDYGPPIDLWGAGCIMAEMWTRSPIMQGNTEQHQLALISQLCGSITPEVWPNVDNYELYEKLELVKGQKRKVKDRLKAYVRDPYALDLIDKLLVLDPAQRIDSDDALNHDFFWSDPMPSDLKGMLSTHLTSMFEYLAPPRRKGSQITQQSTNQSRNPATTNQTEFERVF
T1 sequence (O60563 whole entry partner): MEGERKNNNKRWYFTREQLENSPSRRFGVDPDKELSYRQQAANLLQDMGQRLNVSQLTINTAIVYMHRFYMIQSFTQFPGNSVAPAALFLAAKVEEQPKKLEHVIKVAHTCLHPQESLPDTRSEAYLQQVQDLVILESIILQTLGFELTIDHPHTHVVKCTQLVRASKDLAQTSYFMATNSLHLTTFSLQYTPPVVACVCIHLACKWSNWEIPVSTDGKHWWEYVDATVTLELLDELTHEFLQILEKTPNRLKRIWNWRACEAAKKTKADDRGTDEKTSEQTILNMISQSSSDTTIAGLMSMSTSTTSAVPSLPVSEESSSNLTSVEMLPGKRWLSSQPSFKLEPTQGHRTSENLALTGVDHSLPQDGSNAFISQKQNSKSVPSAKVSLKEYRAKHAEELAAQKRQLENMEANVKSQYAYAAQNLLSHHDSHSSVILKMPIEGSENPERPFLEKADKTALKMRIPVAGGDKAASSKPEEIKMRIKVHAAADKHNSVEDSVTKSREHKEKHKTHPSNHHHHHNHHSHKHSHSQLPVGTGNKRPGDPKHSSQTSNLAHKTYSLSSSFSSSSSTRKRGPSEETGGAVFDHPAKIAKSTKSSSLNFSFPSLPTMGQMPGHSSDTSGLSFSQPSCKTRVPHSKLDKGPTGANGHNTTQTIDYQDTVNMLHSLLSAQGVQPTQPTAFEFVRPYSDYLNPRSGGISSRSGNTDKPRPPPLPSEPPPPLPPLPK
T2 sequence (Q9NYV4 whole entry): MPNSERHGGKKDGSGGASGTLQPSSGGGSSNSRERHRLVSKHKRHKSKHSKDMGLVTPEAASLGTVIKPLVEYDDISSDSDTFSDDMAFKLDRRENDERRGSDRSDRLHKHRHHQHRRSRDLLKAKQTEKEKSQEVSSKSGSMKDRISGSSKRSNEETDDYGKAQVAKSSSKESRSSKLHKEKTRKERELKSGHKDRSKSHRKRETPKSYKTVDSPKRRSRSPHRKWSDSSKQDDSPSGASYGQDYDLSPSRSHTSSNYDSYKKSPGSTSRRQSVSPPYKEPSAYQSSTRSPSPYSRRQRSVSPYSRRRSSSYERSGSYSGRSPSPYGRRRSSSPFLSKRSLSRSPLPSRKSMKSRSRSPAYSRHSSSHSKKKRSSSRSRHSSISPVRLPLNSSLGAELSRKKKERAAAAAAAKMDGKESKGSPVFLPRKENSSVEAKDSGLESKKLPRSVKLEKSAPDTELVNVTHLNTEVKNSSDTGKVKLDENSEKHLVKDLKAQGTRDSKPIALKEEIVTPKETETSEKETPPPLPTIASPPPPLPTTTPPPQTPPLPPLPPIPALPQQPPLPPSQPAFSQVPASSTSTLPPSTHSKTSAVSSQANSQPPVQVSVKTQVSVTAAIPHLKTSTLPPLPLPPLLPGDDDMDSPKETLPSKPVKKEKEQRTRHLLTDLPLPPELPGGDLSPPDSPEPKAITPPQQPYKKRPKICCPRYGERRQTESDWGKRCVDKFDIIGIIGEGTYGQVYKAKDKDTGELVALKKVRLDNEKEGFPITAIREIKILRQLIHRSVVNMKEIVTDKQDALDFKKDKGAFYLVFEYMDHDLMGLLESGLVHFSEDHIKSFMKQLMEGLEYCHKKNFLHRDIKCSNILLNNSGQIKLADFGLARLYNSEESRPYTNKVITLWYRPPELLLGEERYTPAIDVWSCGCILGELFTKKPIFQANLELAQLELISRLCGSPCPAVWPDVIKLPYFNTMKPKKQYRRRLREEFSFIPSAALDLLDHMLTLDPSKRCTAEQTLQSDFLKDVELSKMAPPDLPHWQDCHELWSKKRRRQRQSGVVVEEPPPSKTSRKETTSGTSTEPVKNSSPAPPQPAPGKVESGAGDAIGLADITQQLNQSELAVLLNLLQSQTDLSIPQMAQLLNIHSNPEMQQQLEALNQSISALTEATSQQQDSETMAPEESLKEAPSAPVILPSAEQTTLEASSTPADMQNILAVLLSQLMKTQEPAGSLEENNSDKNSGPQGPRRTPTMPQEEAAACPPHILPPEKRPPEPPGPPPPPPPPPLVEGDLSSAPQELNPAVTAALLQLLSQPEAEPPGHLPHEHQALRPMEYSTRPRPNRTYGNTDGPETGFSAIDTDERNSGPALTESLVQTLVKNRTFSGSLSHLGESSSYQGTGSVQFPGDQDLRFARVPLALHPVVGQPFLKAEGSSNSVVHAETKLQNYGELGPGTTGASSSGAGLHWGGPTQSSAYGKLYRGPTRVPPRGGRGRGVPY
T2 sequence (O75909 whole entry partner): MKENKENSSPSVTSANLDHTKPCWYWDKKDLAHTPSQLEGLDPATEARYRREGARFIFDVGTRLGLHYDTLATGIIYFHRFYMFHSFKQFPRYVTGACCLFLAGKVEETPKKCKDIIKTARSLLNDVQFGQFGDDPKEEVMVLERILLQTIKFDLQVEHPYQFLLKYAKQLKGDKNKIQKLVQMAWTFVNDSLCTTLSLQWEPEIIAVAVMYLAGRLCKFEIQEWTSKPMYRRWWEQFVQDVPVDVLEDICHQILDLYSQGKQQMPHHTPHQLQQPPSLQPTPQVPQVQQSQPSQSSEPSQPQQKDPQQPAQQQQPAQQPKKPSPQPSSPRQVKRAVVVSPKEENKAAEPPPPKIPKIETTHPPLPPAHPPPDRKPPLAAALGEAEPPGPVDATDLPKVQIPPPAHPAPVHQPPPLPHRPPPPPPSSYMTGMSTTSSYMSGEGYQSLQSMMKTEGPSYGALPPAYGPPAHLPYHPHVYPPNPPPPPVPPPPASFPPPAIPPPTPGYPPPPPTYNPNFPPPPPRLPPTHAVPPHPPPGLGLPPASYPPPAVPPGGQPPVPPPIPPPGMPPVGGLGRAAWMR

Structure (SMILES)	IC50 ([1]; Homo sapiens, CAL-120, 96 h)	IC50 (CDK9/CycT1)	DC50 [2]	(IC50 CDK12 high ATP) to (Degradation DC50 CDK12) ratio [2]	IC50 [1]
Brc1cnn2c(NCc3nc4ccccc4[nH]3)nc(N3CC4CCC(C3)O4)nc12 [Example 351, N-[(1H-benzimidazol-2-yl)methyl]-8-bromo-2-(8-oxa-3-azabicyclo[3.2.1]octan-3-yl)pyrazolo[1,5-a][1,3,5]triazin-4-amine]	38.4 nM	> 20000 nM	24 nM	390	
Brc1cnn2c(NCc3nc4ccccc4[nH]3)nc(N3C[C@H]4CC[C@@H]3CN4)nc12 (single isomer, unassigned) [Example 335, N-[(1H-benzimidazol-2-yl)methyl]-8-bromo-2-{[1R or S-(1R*,4R*)]-2,5-diazabicyclo[2.2.2]octan-2-yl}pyrazolo[1,5-a][1,3,5]triazin-4-amine]		> 20000 nM	8.34 nM	798	4.24 nM
CN(CC(C)(C)O)c1nc(NCc2nc3c(F)c(F)ccc3[nH]2)n2ncc(Cl)c2n1 [Example 359, 1-[(8-chloro-4-{[(4,5-difluoro-1H-benzimidazol-2-yl)methyl]amino}pyrazolo[1,5-a][1,3,5]triazin-2-yl)(methyl)amino]-2-methylpropan-2-ol]	5.69 nM	7130 nM	4.33 nM	483	
Brc1cnn2c(NCc3nc4ccccc4[nH]3)nc(N3CC4CCC3CO4)nc12 (stereo not drawn) [Example 352, N-[(1H-benzimidazol-2-yl)methyl]-8-bromo-2-(2-oxa-5-azabicyclo[2.2.2]octan-5-yl)pyrazolo[1,5-a][1,3,5]triazin-4-amine]	8.05 nM	16800 nM	5.68 nM	925	
CN(CC(C)(C)O)c1nc(NCc2nc3cc(F)c(F)cc3[nH]2)n2ncc(Br)c2n1 [Example 347]	2.47 nM	10400 nM	2.01 nM	1086	
Cc1cc2nc(CNc3nc(N4CC5CCC(C4)N5)nc4c(Br)cnn34)[nH]c2cc1C [Example 353, 8-bromo-2-(3,8-diazabicyclo[3.2.1]octan-3-yl)-N-[(5,6-dimethyl-1H-benzimidazol-2-yl)methyl]pyrazolo[1,5-a][1,3,5]triazin-4-amine]	1.41 nM	12700 nM	12.4 nM	203	
Fc1cccc2[nH]c(CNc3nc(N4CCOCC4)nc4c(Cl)cnn34)nc12 [Example 361, 8-chloro-N-[(4-fluoro-1H-benzimidazol-2-yl)methyl]-2-(morpholin-4-yl)pyrazolo[1,5-a][1,3,5]triazin-4-amine]	6.73 nM	13800 nM	6.4 nM	224	
Fc1c(Cl)ccc2[nH]c(CNc3nc(N4CC5CCC(C4)N5)nc4c(Br)cnn34)nc12 [Example 380, 8-bromo-N-[(5-chloro-4-fluoro-1H-benzimidazol-2-yl)methyl]-2-(3,8-diazabicyclo[3.2.1]octan-3-yl)pyrazolo[1,5-a][1,3,5]triazin-4-amine]	1.72 nM	5930 nM	2.32 nM	438	
FC(F)(F)Oc1cccc2[nH]c(CNc3nc(N4C[C@H]5CC[C@@H](C4)N5)nc4c(Br)cnn34)nc12 [Example 381, 8-bromo-2-[(1R,5S)-3,8-diazabicyclo[3.2.1]octan-3-yl]-N-{[4-(trifluoromethoxy)-1H-benzimidazol-2-yl]methyl}pyrazolo[1,5-a][1,3,5]triazin-4-amine]	30.8 nM	14000 nM	22.2 nM	266	

More lines, in order of falling IC50 ([1]; Homo sapiens, CAL-120, 96 h), values ahead:

IC50 ([1]; Homo sapiens, CAL-120, 96 h)	IC50 (CDK9/CycT1)	DC50 [2]	(IC50 CDK12 high ATP) to (Degradation DC50 CDK12) ratio [2]	Structure (SMILES)	IC50 [1]
79.3 nM	> 20000 nM	20.2 nM	252	CN1CCN(c2nc(NCc3nc4cc(OC(F)(F)F)ccc4[nH]3)n3ncc(Br)c3n2)CC1 [Example 377, 8-bromo-2-(4-methylpiperazin-1-yl)-N-{[5-(trifluoromethoxy)-1H-benzimidazol-2-yl]methyl}pyrazolo[1,5-a][1,3,5]triazin-4-amine]	
68.6 nM	14500 nM	58.1 nM	79	FC(F)(F)Oc1cccc2[nH]c(CNc3nc(N4CCOCC4)nc4c(Br)cnn34)nc12 [Example 375, 8-bromo-2-(morpholin-4-yl)-N-{[4-(trifluoromethoxy)-1H-benzimidazol-2-yl]methyl}pyrazolo[1,5-a][1,3,5]triazin-4-amine]	
41.5 nM	12700 nM	29.1 nM	15	CN(CC(C)(C)O)c1nc(NCc2nc3cc(OC(F)(F)F)ccc3[nH]2)n2ncc(Br)c2n1 [Example 378, 1-{[8-bromo-4-({[5-(trifluoromethoxy)-1H-benzimidazol-2-yl]methyl}amino)pyrazolo[1,5-a][1,3,5]triazin-2-yl](methyl)amino}-2-methylpropan-2-ol]	
31.4 nM	17600 nM	12.7 nM	231	CC[C@@H](CO)Nc1nc(NCc2nc3ccccc3[nH]2)n2ncc(Br)c2n1 [Example 367, (2S)-2-[(4-{[(1H-benzimidazol-2-yl)methyl]amino}-8-bromopyrazolo[1,5-a][1,3,5]triazin-2-yl)amino]butan-1-ol]	
25.9 nM	1290 nM	9.13 nM	31	Fc1cccc(-c2nnc(CNc3nc(N4CCOCC4)nc4c(C(F)(F)F)cnn34)[nH]2)c1 [Example 385, N-{[5-(3-fluorophenyl)-4H-1,2,4-triazol-3-yl]methyl}-2-(morpholin-4-yl)-8-(trifluoromethyl)pyrazolo[1,5-a][1,3,5]triazin-4-amine]	
22.5 nM	> 20000 nM	10.4 nM	655	C[C@H]1CN(C)CCN1c1nc(NCc2nc3c(F)cccc3[nH]2)n2ncc(C(F)(F)F)c2n1 [Example 388, 2-[(2S)-2,4-dimethylpiperazin-1-yl]-N-[(4-fluoro-1H-benzimidazol-2-yl)methyl]-8-(trifluoromethyl)pyrazolo[1,5-a][1,3,5]triazin-4-amine]	
12.5 nM	749 nM	9.83 nM	12	Fc1cc(F)cc(-c2nnc(CNc3nc(N4CCOCC4)nc4c(C(F)(F)F)cnn34)[nH]2)c1 [Example 386, N-{[5-(3,5-difluorophenyl)-4H-1,2,4-triazol-3-yl]methyl}-2-(morpholin-4-yl)-8-(trifluoromethyl)pyrazolo[1,5-a][1,3,5]triazin-4-amine]	
10.9 nM	> 20000 nM	10.7 nM	18	FC(F)(F)c1cnn2c(NCc3nc4cc(Cl)c(Cl)cc4[nH]3)nc(N3CCOCC3)nc12 [Example 332, N-[(5,6-dichloro-1H-benzimidazol-2-yl)methyl]-2-(morpholin-4-yl)-8-(trifluoromethyl)pyrazolo[1,5-a][1,3,5]triazin-4-amine]	
5.4 nM	> 20000 nM	16.9 nM	169	CN(CC(C)(C)O)c1nc(NCc2nc3cc(C(F)(F)F)ccc3[nH]2)n2ncc(C3CC3)c2n1 [Example 323, 1-{[8-cyclopropyl-4-({[5-(trifluoromethyl)-1H-benzimidazol-2-yl]methyl}amino)pyrazolo[1,5-a][1,3,5]triazin-2-yl](methyl)amino}-2-methylpropan-2-ol]	
4.79 nM	13800 nM	7.59 nM	204	FC(F)(F)c1ccc2[nH]c(CNc3nc(N4CCOCC4)nc4c(Br)cnn34)nc2c1 [Example 339, 8-bromo-2-(morpholin-4-yl)-N-{[5-(trifluoromethyl)-1H-benzimidazol-2-yl]methyl}pyrazolo[1,5-a][1,3,5]triazin-4-amine]	
2.66 nM	> 20000 nM	2.35 nM	5220	CN1CCN(c2nc(NCc3nc4cc(F)c(F)cc4[nH]3)n3ncc(Br)c3n2)CC1 [Example 346, 8-bromo-N-[(5,6-difluoro-1H-benzimidazol-2-yl)methyl]-2-(4-methylpiperazin-1-yl)pyrazolo[1,5-a][1,3,5]triazin-4-amine]	
2.35 nM	7300 nM	6.23 nM	67	Cc1cc2nc(CNc3nc(N(C)CC(C)(C)O)nc4c(C5CC5)cnn34)[nH]c2cc1C [Example 321, 1-[(8-cyclopropyl-4-{[(5,6-dimethyl-1H-benzimidazol-2-yl)methyl]amino}pyrazolo[1,5-a][1,3,5]triazin-2-yl)(methyl)amino]-2-methylpropan-2-ol]	
